Results reported in PMC10218596 (International Journal of Molecular Sciences, 2023).

Legend:
Assay type in all cases: cell-based
h[α6R3Q/α3]β4 = molecular target: T1, h[α6R3Q/α3]β4 (Homo sapiens, UniProt P30926+P32297+Q15825, R36Q); assay: Electrophysiological assay, ACh concentration-response (Xenopus oocytes); details: ACh on h[α6R3Q/α3]β4
T1 construct: formed by splicing the N-terminal extracellular domain of the α6 subunit with the α3 subunit; human nAChR α3 subunit (CHRNA3); expressed in transfected cells; host or cells: Xenopus laevis oocytes injected with cRNA (plasmids from the University of Utah)

h[α6K7T/α3]β4 = molecular target: T2, h[α6K7T/α3]β4 (Homo sapiens, UniProt P30926+P32297+Q15825, K40T); assay: as above; details: ACh on h[α6K7T/α3]β4
T2 construct: formed by splicing the N-terminal extracellular domain of the α6 subunit with the α3 subunit; human nAChR α3 subunit (CHRNA3); expressed in transfected cells; host or cells: Xenopus laevis oocytes injected with cRNA (plasmids from the University of Utah)

h[α6S10A/α3]β4 = molecular target: T3, h[α6S10A/α3]β4 (Homo sapiens, UniProt P30926+P32297+Q15825, S43A); details: ACh on h[α6S10A/α3]β4
T3 construct: formed by splicing the N-terminal extracellular domain of the α6 subunit with the α3 subunit; human nAChR α3 subunit (CHRNA3); expressed in transfected cells; host or cells: Xenopus laevis oocytes injected with cRNA (plasmids from the University of Utah)

h[α6Q14R/α3]β4 = molecular target: T4, h[α6Q14R/α3]β4 (Homo sapiens, UniProt P30926+P32297+Q15825, Q47R); details: ACh on h[α6Q14R/α3]β4
T4 construct: formed by splicing the N-terminal extracellular domain of the α6 subunit with the α3 subunit; human nAChR α3 subunit (CHRNA3); expressed in transfected cells; host or cells: Xenopus laevis oocytes injected with cRNA (plasmids from the University of Utah)

h[α6V32L/α3]β4 = molecular target: T5, h[α6V32L/α3]β4 (Homo sapiens, UniProt P30926+P32297+Q15825, V65L); details: ACh on h[α6V32L/α3]β4
T5 construct: formed by splicing the N-terminal extracellular domain of the α6 subunit with the α3 subunit; human nAChR α3 subunit (CHRNA3); expressed in transfected cells; host or cells: Xenopus laevis oocytes injected with cRNA (plasmids from the University of Utah)

h[α6N58K/α3]β4 = molecular target: T6, h[α6N58K/α3]β4 (Homo sapiens, UniProt P30926+P32297+Q15825, N91K); assay: Electrophysiological assay, ACh concentration-response (Xenopus oocytes); details: ACh on h[α6N58K/α3]β4
T6 construct: formed by splicing the N-terminal extracellular domain of the α6 subunit with the α3 subunit; human nAChR α3 subunit (CHRNA3); expressed in transfected cells; host or cells: Xenopus laevis oocytes injected with cRNA (plasmids from the University of Utah)

h[α6K61R/α3]β4 = molecular target: T7, h[α6K61R/α3]β4 (Homo sapiens, UniProt P30926+P32297+Q15825, K94R); assay: as above; details: ACh on h[α6K61R/α3]β4
T7 construct: formed by splicing the N-terminal extracellular domain of the α6 subunit with the α3 subunit; human nAChR α3 subunit (CHRNA3); expressed in transfected cells; host or cells: Xenopus laevis oocytes injected with cRNA (plasmids from the University of Utah)

h[α6R63C/α3]β4 = molecular target: T8, h[α6R63C/α3]β4 (Homo sapiens, UniProt P30926+P32297+Q15825, R96C); details: ACh on h[α6R63C/α3]β4
T8 construct: formed by splicing the N-terminal extracellular domain of the α6 subunit with the α3 subunit; human nAChR α3 subunit (CHRNA3); expressed in transfected cells; host or cells: Xenopus laevis oocytes injected with cRNA (plasmids from the University of Utah)

h[α6M67T/α3]β4 = molecular target: T9, h[α6M67T/α3]β4 (Homo sapiens, UniProt P30926+P32297+Q15825, M100T); details: ACh on h[α6M67T/α3]β4
T9 construct: formed by splicing the N-terminal extracellular domain of the α6 subunit with the α3 subunit; fusion partner: remainder of the human α3 subunit (CHRNA3); expressed in transfected cells; host or cells: Xenopus laevis oocytes injected with cRNA

h[α6K81N/α3]β4 = molecular target: T10, h[α6K81N/α3]β4 (Homo sapiens, UniProt P30926+P32297+Q15825, K114N); details: ACh on h[α6K81N/α3]β4
T10 construct: formed by splicing the N-terminal extracellular domain of the α6 subunit with the α3 subunit; fusion partner: remainder of the human α3 subunit (CHRNA3); expressed in transfected cells; host or cells: Xenopus laevis oocytes injected with cRNA

h[α6N110D/α3]β4 = molecular target: T11, h[α6N110D/α3]β4 (Homo sapiens, UniProt P30926+P32297+Q15825, N143D); assay: Electrophysiological assay, ACh concentration-response (Xenopus oocytes); details: ACh on h[α6N110D/α3]β4
T11 construct: formed by splicing the N-terminal extracellular domain of the α6 subunit with the α3 subunit; fusion partner: remainder of the human α3 subunit (CHRNA3); expressed in transfected cells; host or cells: Xenopus laevis oocytes injected with cRNA

h[α6M112V/α3]β4 = molecular target: T12, h[α6M112V/α3]β4 (Homo sapiens, UniProt P30926+P32297+Q15825, M145V); details: ACh on h[α6M112V/α3]β4
T12 construct: formed by splicing the N-terminal extracellular domain of the α6 subunit with the α3 subunit; fusion partner: remainder of the human α3 subunit (CHRNA3); expressed in transfected cells; host or cells: Xenopus laevis oocytes injected with cRNA

h[α6I176V/α3]β4 = molecular target: T13, h[α6I176V/α3]β4 (Homo sapiens, UniProt P30926+P32297+Q15825, I209V); assay: Electrophysiological assay, ACh concentration-response (Xenopus oocytes); details: ACh on h[α6I176V/α3]β4
T13 construct: formed by splicing the N-terminal extracellular domain of the α6 subunit with the α3 subunit; fusion partner: remainder of the human α3 subunit (CHRNA3); expressed in transfected cells; host or cells: Xenopus laevis oocytes injected with cRNA

h[α6V32L, K61R/α3]β4 = molecular target: T14, h[α6V32L, K61R/α3]β4 (Homo sapiens, UniProt P30926+P32297+Q15825, K94R/V65L); details: ACh on h[α6V32L
T14 construct: formed by splicing the N-terminal extracellular domain of the α6 subunit with the α3 subunit; fusion partner: remainder of the human α3 subunit (CHRNA3); expressed in transfected cells; host or cells: Xenopus laevis oocytes injected with cRNA

[1] = molecular target: T15, h[α6V32L, K61R/α3]β4L107V,V115I (Homo sapiens, UniProt P30926+P32297+Q15825, K94R/L133V/V141I/V65L); details: ACh on h[α6V32L
T15 construct: formed by splicing the N-terminal extracellular domain of the α6 subunit with the α3 subunit; fusion partner: remainder of the human α3 subunit (CHRNA3); expressed in transfected cells; host or cells: Xenopus laevis oocytes injected with cRNA

T1 sequence (Q15825+P32297 fused with the stated changes): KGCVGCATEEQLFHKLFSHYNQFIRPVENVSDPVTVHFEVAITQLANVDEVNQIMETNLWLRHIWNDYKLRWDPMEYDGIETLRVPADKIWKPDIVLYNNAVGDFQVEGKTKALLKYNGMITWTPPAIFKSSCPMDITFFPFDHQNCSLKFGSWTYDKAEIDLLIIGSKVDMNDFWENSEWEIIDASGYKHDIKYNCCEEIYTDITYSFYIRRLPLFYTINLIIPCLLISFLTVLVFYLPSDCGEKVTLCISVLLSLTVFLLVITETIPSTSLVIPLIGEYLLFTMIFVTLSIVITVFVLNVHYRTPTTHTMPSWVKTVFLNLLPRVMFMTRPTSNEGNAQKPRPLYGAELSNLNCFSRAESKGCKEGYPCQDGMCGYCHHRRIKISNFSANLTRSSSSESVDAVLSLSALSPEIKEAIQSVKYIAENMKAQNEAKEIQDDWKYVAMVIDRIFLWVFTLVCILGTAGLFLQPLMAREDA
T1 sequence (P30926 22-498): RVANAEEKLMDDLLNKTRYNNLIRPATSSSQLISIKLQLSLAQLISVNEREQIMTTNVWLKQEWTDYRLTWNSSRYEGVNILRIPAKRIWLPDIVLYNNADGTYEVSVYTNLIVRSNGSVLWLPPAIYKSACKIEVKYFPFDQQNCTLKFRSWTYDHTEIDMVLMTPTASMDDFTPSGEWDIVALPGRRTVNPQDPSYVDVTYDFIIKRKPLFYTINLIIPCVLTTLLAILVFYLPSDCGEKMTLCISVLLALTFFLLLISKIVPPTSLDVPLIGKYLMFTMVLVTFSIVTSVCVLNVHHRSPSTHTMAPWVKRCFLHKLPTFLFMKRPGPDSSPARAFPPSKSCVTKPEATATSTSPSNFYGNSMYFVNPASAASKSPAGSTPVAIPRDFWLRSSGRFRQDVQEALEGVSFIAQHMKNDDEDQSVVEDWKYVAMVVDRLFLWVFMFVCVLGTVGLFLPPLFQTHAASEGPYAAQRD
T8 sequence (Q15825+P32297 fused with the stated changes): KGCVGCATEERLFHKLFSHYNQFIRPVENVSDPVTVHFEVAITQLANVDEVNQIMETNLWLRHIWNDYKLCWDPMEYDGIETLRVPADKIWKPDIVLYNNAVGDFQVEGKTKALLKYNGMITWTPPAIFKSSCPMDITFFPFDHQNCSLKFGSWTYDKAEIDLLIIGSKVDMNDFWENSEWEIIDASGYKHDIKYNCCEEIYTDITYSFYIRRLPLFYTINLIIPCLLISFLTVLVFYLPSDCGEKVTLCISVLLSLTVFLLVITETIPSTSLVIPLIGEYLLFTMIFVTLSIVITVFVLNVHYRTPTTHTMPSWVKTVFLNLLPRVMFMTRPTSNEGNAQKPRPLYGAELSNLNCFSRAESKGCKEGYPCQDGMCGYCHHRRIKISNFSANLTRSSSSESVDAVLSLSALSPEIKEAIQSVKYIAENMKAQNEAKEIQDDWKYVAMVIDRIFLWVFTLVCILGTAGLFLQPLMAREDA
T8 sequence (P30926 22-498, stated change not applied): as the sequence (P30926 22-498) above
T4 sequence (Q15825+P32297 fused with the stated changes): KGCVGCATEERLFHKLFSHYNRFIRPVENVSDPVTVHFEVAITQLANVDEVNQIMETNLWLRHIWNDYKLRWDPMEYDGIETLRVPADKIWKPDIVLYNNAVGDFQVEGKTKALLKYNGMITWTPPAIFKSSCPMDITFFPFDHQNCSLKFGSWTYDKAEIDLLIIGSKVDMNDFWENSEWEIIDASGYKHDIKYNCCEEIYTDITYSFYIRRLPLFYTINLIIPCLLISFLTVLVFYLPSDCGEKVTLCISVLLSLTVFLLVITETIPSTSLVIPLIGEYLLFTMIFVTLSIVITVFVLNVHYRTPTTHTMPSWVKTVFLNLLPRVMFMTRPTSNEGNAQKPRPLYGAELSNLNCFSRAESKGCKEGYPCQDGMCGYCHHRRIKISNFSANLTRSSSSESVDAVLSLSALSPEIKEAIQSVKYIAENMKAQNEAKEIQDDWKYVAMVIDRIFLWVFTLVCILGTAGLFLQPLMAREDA
T4 sequence (P30926 22-498): as the sequence (P30926 22-498) above
T12 sequence (Q15825+P32297 fused with the stated changes): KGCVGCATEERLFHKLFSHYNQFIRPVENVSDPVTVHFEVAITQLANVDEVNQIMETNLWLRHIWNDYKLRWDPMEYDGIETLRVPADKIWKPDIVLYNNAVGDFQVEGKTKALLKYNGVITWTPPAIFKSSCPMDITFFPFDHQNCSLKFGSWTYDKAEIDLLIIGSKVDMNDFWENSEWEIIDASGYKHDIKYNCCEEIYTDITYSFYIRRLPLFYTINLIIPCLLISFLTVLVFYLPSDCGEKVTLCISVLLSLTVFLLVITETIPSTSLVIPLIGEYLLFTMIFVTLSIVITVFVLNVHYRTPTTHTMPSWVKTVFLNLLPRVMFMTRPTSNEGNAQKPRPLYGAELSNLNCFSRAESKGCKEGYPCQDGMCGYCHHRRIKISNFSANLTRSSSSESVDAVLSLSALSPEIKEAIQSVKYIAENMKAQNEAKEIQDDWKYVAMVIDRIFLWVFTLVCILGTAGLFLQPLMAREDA
T12 sequence (P30926 22-498): as the sequence (P30926 22-498) above
T3 sequence (Q15825+P32297 fused with the stated changes): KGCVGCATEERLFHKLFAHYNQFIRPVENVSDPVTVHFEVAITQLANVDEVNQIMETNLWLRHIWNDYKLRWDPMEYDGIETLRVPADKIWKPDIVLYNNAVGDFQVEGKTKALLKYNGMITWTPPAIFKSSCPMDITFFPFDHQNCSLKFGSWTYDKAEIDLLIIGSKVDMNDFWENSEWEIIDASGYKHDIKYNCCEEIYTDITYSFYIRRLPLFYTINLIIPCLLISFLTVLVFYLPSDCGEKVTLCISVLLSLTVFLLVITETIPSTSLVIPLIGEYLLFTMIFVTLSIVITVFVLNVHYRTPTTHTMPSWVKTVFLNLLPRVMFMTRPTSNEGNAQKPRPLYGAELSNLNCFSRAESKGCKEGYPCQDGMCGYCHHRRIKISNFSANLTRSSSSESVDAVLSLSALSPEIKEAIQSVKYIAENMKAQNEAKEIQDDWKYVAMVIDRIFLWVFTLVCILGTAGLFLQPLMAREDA
T3 sequence (P30926 22-498): as the sequence (P30926 22-498) above

CC(=O)OCC[N+](C)(C)C [ACh, acetylcholine chloride]
Hill Slope (h[α6R3Q/α3]β4): 1.4 (1.2–1.8)
Hill Slope (h[α6K7T/α3]β4): 1.5 (1.1–1.9)
Hill Slope (h[α6S10A/α3]β4): 1.6 (1.2–2.3)
Hill Slope (h[α6Q14R/α3]β4): 1.4 (1.2–1.6)
Hill Slope (h[α6V32L/α3]β4): 1.5 (1.3–1.9)
Hill Slope (h[α6N58K/α3]β4): 1.4 (1.2–1.7)
Hill Slope (h[α6K61R/α3]β4): 1.4 (1.2–1.7)
Hill Slope (h[α6R63C/α3]β4): 1.5 (1.2–1.8)
Hill Slope (h[α6M67T/α3]β4): 1.4 (0.9–2.2)
Hill Slope (h[α6K81N/α3]β4): 1.4 (1.3–1.7)
Hill Slope (h[α6N110D/α3]β4): 1.2 (0.9–1.6)
Hill Slope (h[α6M112V/α3]β4): 1.4 (1.1–1.8)
Hill Slope (h[α6I176V/α3]β4): 1.7 (1.4–2.1)
Hill Slope (h[α6V32L, K61R/α3]β4): 1.2 (1.1–1.3)
Hill Slope [1]: 1.2 (1.0–1.5)
